For orientation: EC50 means the concentration at which the effect is half-maximal.

The test system of experiment [1] is stress-induced bowel movement. Conditions: various animals, references 6-9; cited from earlier work.
For experiment [2], the system named is restraint stress-induced bowel movement, male C57BL/6 mice. Put plainly: mouse restraint stress-induced bowel movement. The format is in vivo. The note with it: intraperitoneal; for suppression of restraint stress-induced bowel movement: 10 min before stress loading, excreted feces in 2 hr, FIG. 2. The protocol: Male C57BL/6 mice were used under non-fasting conditions. On the day of the test, the body weight was measured, and the mice were individually bred for 2 hr. Thereafter, the mice were placed in a mouse restraint stress cage, and the number of excreted feces in 2 hr was counted. The normal group was individually bred for 2 hr, and subsequently was bred under the same conditions, the number of excreted feces in 2 hr was counted. Each drug (same as in Example 1) was suspended in 0.5% methylcellulose, and intraperitoneally administered at a dose of 10 ml/kg 10 min before stress loading.

The test system of experiment [3] is rat ileum peristalsis motility. Put plainly: rat exo-vivo ileum peristalsis. Conditions: isolated ileum of male SD rats, intraluminal pressure; FIG. 3. The protocol: Male SD rats were used under non-fasting conditions. On the day of the test, 4-5 cm of the ileum was isolated, and the oral side end and aboral side end were subjected to cannulation. 95% oxygen/5% carbon dioxide was passed therethrough and placed horizontally in a bath filled with a Krebs solution warmed to 37° C. A tube outflux on the aboral side was set at about 4 cm higher than the bath, 95% oxygen/5% carbon dioxide was passed from the tube on the oral side and perfused with a Krebs solution warmed to 37° C. at a flow rate of 10 cc/hr to induce peristalsis motility. Changes of the intraluminal pressure of the intestine due to the peristalsis motility of the ileum were recorded by a transducer from the tube on the oral side. A compound at various concentrations was added to the Krebs solution surrounding the ileum. When a compound at various concentrations was added, the Krebs solution was exchanged immediately before the addition.

Another experiment addresses T1, human TGR5 (Homo sapiens, UniProt Q8TDU6).
T1 construct: expressed in transfected cells; host or cells: CHO cells
T1 sequence (Q8TDU6 1-330): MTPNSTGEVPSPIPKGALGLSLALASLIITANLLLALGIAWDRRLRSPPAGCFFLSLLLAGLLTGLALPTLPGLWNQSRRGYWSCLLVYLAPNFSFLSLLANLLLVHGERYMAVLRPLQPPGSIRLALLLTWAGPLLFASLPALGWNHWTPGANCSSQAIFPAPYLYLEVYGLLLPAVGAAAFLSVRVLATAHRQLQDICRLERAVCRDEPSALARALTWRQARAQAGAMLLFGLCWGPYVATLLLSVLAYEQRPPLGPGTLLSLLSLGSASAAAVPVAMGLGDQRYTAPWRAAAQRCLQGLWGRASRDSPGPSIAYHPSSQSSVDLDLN
Put plainly: cAMP production in CHO cell line expressing human TGR5 (CHO-hTGR5). The format is cell-based. The protocol:
[The procedure below names another species; the source lists this species under the same test.] (§1) CHO cell line expressing mouse TGR5 (CHO-mTGR5), which was prepared by a method known per se and using the mouse TGR5 expression vector, was suspended in an assay medium (Hanks' Balanced Salt Solution (Invitrogen) added with 0.2 mM isobutylmethylxanthine and 0.1% bovine albumin) at 1×10^7 cells/ml and stood at room temperature for 30 min. Then, a compound diluted with the assay medium to each concentration was added, and the mixture was stood still at room temperature for 30 min, and the cAMP amount was measured according to the protocol of ALPHA SCREEN cAMP ASSAY KIT (Perkin Elmer). […] The EC50 value was calculated by using GraphPad PRISM (GraphPad software) from the amount of cAMP produced by each compound.

The next experiment addresses T2, rat TGR5 (Rattus norvegicus, UniProt Q80T02).
T2 construct: expressed in transfected cells; host or cells: CHO cells
T2 sequence (Q80T02 1-329): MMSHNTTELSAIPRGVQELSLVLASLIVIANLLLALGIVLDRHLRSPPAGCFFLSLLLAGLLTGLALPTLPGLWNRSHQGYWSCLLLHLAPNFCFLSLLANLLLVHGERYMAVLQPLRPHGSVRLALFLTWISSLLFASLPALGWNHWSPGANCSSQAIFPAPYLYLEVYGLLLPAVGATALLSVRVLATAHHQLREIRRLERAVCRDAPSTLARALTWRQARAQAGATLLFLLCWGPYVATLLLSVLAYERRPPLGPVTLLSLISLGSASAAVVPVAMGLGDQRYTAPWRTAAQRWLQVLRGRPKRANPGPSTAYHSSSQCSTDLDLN
Description: cAMP production in CHO cell line expressing rat TGR5 (CHO-rTGR5). The format is cell-based. The protocol: [The procedure below names another species; the source lists this species under the same test.] as §1

Another experiment addresses T3, mouse TGR5 (Mus musculus, UniProt Q80SS6).
T3 construct: expressed in transfected cells; host or cells: CHO cells, expression vector pAKKO-111H
T3 sequence (Q80SS6 1-329): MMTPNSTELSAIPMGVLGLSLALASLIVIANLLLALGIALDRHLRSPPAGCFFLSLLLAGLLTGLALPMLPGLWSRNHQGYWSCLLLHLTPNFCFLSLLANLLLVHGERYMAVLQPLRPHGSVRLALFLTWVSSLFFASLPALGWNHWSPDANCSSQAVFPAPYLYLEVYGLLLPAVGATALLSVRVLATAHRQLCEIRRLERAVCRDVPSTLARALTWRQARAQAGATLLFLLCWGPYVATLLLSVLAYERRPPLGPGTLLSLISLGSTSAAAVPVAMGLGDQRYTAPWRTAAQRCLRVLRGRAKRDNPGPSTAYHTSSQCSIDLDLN
Description: cAMP production in CHO cell line expressing mouse TGR5 (CHO-mTGR5). The format is cell-based. The protocol: as §1
On the technique in general: Changes in cAMP serve as a functional read-out for many G protein-coupled receptors.

[4] abbreviates: CHO-hTGR5, cAMP production, read-out: EC50 value.
The mark [5] stands for this setting: CHO-rTGR5, cAMP production, read-out: EC50 value.
Setting [6] is: Table 8, rat TGR5, read-out: EC50 (M) Rat.

SMILES strings stand for the structures. Read-outs that look alike come from different tables or passages of the source.

Turning to `Cc1[nH]cnc1CN1CCc2c(c3ccccc3n2C)C1=O` [Alosetron], the “suppression of stress-induced bowel movement” value in experiment [1] is listed as “suppress stress-induced bowel movement”.

As for `O=C1COc2nccc(-c3ccccc3F)c2CN1Cc1cc(C(F)(F)F)cc(C(F)(F)F)c1` [Compound A, 4-[3,5-bis(trifluoromethyl)benzyl]-6-(2-fluorophenyl)-4,5-dihydropyrido[3,2-f][1,4]oxazepin-3(2H)-one], the “suppressive action on the restraint stress-induced bowel movement” value (“suppressive action” below) in experiment [2] (dose 30 mg/kg) is reported as “statistically significant suppressive action”. In addition, the “suppression of restraint stress-induced bowel movement” value in experiment [2] is recorded as “suppressed a restraint stress-induced bowel movement in a dose-dependent manner”. For the same compound, the “suppression of peristalsis motility of the ileum” value (“suppression … of the ileum” below) in experiment [3] is “suppressed the peristalsis motility of the ileum in a dose-dependent manner”.

Regarding `O=C1COc2nccc(-c3ccccc3O)c2CN1Cc1cc(C(F)(F)F)cc(C(F)(F)F)c1` [Compound E, 4-[3,5-bis(trifluoromethyl)benzyl]-6-(2-hydroxyphenyl)-4,5-dihydropyrido[3,2-f][1,4]oxazepin-3(2H)-one], the EC50 was found to be 2.4e-07 M on human TGR5 (setting [4]); 2.4e-07 M at human TGR5 (Table 8, human TGR5, read-out: EC50 (M) Human); 3.2e-07 M on rat TGR5 (setting [5]). The “suppression … of the ileum” value in experiment [3] is reported as “suppressed the peristalsis motility of the ileum in a dose-dependent manner”.

Consider `CC(c1cc(C(F)(F)F)cc(C(F)(F)F)c1)N1Cc2c(-c3ccccc3F)ccnc2OCC1=O` (centres unmarked) [Compound B, 4-{1-[3,5-bis(trifluoromethyl)phenyl]ethyl}-6-(2-fluorophenyl)-4,5-dihydropyrido[3,2-f][1,4]oxazepin-3(2H)-one], for which the EC50 on human TGR5 (setting [4]) stood at 6.2e-10 M; on mouse TGR5, 25 nM; at rat TGR5 (setting [5]), 2.4e-09 M. In addition, the “suppressive action” value in experiment [2] (dose 30 mg/kg) was “statistically significant suppressive action”. The “suppression of restraint stress-induced bowel movement” value in experiment [2] was “suppressed a restraint stress-induced bowel movement in a dose-dependent manner”.

With `CC(c1cc(C(F)(F)F)cc(C(F)(F)F)c1)N1CCOc2nccc(-c3ccccc3)c2C1.Cl` (centres unmarked) [Compound D, 4-{1-[3,5-bis(trifluoromethyl)phenyl]ethyl}-6-phenyl-2,3,4,5-tetrahydropyrido[3,2-f][1,4]oxazepine hydrochloride], the EC50 stood at 1.6e-09 M at human TGR5 (setting [4]), 730 nM at mouse TGR5, 1.2e-07 M on rat TGR5 (setting [5]) and 1.2e-07 M on rat TGR5 (setting [6]). For the same compound, the “suppressive action” value in experiment [2] (dose 3 mg/kg), in experiment [2] (dose 10 mg/kg) and in experiment [2] (dose 30 mg/kg) was “statistically significant suppressive action” throughout. Moreover, the “suppression of restraint stress-induced bowel movement” value in experiment [2] is recorded as “suppressed a restraint stress-induced bowel movement in a dose-dependent manner”. Also, in experiment [3], the “suppression … of the ileum” value is reported as “suppressed the peristalsis motility of the ileum in a dose-dependent manner”.

In the case of `CN1C(=O)C(C)(C)N(C(=O)COc2cccc3cnccc23)c2ccc(F)cc21` [Compound C, 7-fluoro-4-[(isoquinolin-5-yloxy)acetyl]-1,3,3-trimethyl-3,4-dihydroquinoxalin-2(1H)-one], the concentration giving a half-maximal response (EC50) on human TGR5 (setting [4]) came out at 2.1e-09 M; at mouse TGR5, 25 nM; at rat TGR5 (setting [5]) it was 9.9e-09 M; at rat TGR5 (setting [6]) it was 9.9e-09 M. Further, the “suppressive action” value in experiment [2] (dose 10 mg/kg) and in experiment [2] (dose 30 mg/kg) was “statistically significant suppressive action” in each case. Besides, the “suppression of restraint stress-induced bowel movement” value in experiment [2] is given as “suppressed a restraint stress-induced bowel movement in a dose-dependent manner”.
